Patent US8674113B2, “Compounds” (Boehringer Ingelheim International GmbH, priority 2010, dated 2014)
Like-named read-outs stand apart in the source and are kept apart here. One block for each molecule: values may come before it.

What was measured:
[1] = target: recombinant human mPGES-1 (Homo sapiens (Human), UniProt O14684); experiment: mPGES-1 enzyme assay (HTRF detection of PGE2); type: biochemical
Outline: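 Microsomes from E. coli expressing recombinant human mPGES-1 (~0.5 μg protein/well) in 0.1 M phosphate pH 7.4 with 2.5 mM GSH, pre-incubated with compound 25 min at room temperature. PGH2 (2 μM final) added, reaction stopped with FeCl2 after 60 s; PGE2 quantified by HTRF (665/620 ratio) against a calibration curve, IC50 by nonlinear regression after background subtraction.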

[2] = target: mPGES-1 in A549 cells (Homo sapiens (Human), UniProt O14684); experiment: A549 cell-based assay (PGE2 formation, 50% human serum)
Outline: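 A549 cells in F-12K with 50% human serum were stimulated 20-24 h with 5 ng/ml IL-1β and 10 nM arachidonic acid in presence of compound or vehicle. PGE2 in the cell-free medium was measured by HTRF, normalised to vehicle (100%). IC50 from 6-8 point titrations.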

[3] = recombinant human mPGES-1 microsomes, PGH2 2 μM, 60 seconds, read-out: mPGES-1 inhibitory effect IC50 in the enzyme assay
[4] = IL-1β 5 ng/ml, 10 nM arachidonic acid, 20-24 h, read-out: mPGES-1 inhibitory effect IC50 in the cell assay

Chain of recombinant human mPGES-1 (O14684 whole entry): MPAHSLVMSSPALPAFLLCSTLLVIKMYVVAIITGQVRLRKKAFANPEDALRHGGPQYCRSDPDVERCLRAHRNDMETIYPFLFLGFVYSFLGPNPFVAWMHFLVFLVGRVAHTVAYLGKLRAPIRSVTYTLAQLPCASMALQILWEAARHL
Chain of mPGES-1 in A549 cells (O14684 whole entry): as above

SMILES: Cn1c(Nc2c(Cl)ccc(CNC(=O)C(C)(C)C)c2Cl)nc2cc(C(=O)N[C@H]3CC[C@@H](C(F)(F)F)CC3)c(N3CCC(C(F)(F)F)CC3)cc21 [Example 61]
IC50 [1, 3]: 2 nM | IC50 [2, 4]: < 1 nM

SMILES: CN(Cc1nccn1C)c1cc2c(cc1C(=O)N[C@H]1CC[C@H](C(F)(F)F)CC1)nc(Nc1c(Cl)ccc(CNC(=O)C(C)(C)C)c1Cl)n2C [Example 88]
IC50 [1, 3]: 2 nM | IC50 [2, 4]: 1.5 nM

SMILES: Cn1c(Nc2c(Cl)ccc(CNC(=O)C(C)(C)C)c2Cl)nc2cc(C(=O)N[C@H]3CC[C@H](C(F)(F)F)CC3)c(N3CC(F)(F)C3)cc21 [Example 21]
IC50 [1, 3]: 4 nM | IC50 [2, 4]: 2.5 nM

SMILES: CN(Cc1ccc(F)cc1)c1cc2c(cc1C(=O)N[C@H]1CC[C@H](C(F)(F)F)CC1)nc(Nc1c(Cl)ccc(CNC(=O)C(C)(C)C)c1Cl)n2C [Example 110, N-(trans-4-Trifluoromethyl-cyclohexyl)-2-{2,6-dichloro-3-[(2,2-dimethyl-propionylamino)-methyl]-phenylamino}-6-[N-methyl-N-(4-fluorobenzyl)amino]-1-methyl-1H-benzimidazole-5-carboxylic acid amide]
IC50 [1, 3]: 2 nM | IC50 [2, 4]: 1.6 nM

SMILES: Cn1c(Nc2c(Cl)ccc(CNC(=O)C(C)(C)C)c2Cl)nc2cc(C(=O)N[C@H]3CC[C@H](C(F)(F)F)CC3)c(N3CC4CCCC43)cc21 (some centres unmarked) [Example 95]
IC50 [1, 3]: 2 nM | IC50 [2, 4]: 7 nM

SMILES: CC(C)(C)C(=O)NCc1ccc(Cl)c(Nc2nc3cc(C(=O)NCC(F)(F)C(F)(F)F)c(N4CCC(F)(F)CC4)cc3n2CC(F)F)c1Cl [Example 74]
IC50 [1, 3]: 3 nM | IC50 [2, 4]: 4 nM

SMILES: Cn1c(Nc2c(Cl)ccc(CNC(=O)C(C)(C)C)c2Cl)nc2cc(C(=O)N[C@H]3CC[C@H](C(F)(F)F)CC3)c(N3C4CCC3CC4)cc21 [Example 92]
IC50 [1, 3]: 2 nM | IC50 [2, 4]: 1.4 nM

SMILES: CN(CC1(C)CC1)c1cc2c(cc1C(=O)N[C@H]1CC[C@H](C(F)(F)F)CC1)nc(Nc1c(Cl)ccc(CNC(=O)C(C)(C)C)c1Cl)n2C [Example 107]
IC50 [1, 3]: 1 nM | IC50 [2, 4]: < 1 nM

SMILES: CC(C)(C)C(=O)NCc1ccc(Cl)c(Nc2nc3cc(C(=O)NCC(F)(F)F)c(N4CCC(F)CC4)cc3[nH]2)c1Cl [Example 11]
IC50 [1, 3]: 3 nM | IC50 [2, 4]: 3 nM

SMILES: Cn1c(Nc2c(Cl)ccc(CNC(=O)C(C)(C)C)c2Cl)nc2cc(C(=O)N[C@H]3CC[C@H](C(F)(F)F)CC3)c(NC3CC(F)(F)C3)cc21 [Example 4, N-(trans-4-Trifluoromethyl-cyclohexyl)-2-{2,6-dichloro-3-[(2,2-dimethyl-propionylamino)-methyl]-phenylamino}-6-[3,3-difluoro-cyclobutylamino]-1-methyl-1H-benzimidazole-5-carboxylic acid amide]
IC50 [1, 3]: 5 nM | IC50 [2, 4]: 20 nM

SMILES: Cn1c(Nc2c(F)ccc(CNC(=O)C(C)(C)C)c2F)nc2cc(C(=O)N[C@H]3CC[C@H](C(F)(F)F)CC3)c(N3CCC(F)CC3)cc21 [Example 12]
IC50 [1, 3]: 3 nM | IC50 [2, 4]: 3 nM

SMILES: Cn1c(Nc2c(Cl)ccc(CNC(=O)C(C)(C)C)c2Cl)nc2cc(C(=O)N[C@H]3CC[C@H](C(F)(F)F)CC3)c(N3CCn4ncnc4C3)cc21 [Example 133]
IC50 [1, 3]: 3 nM | IC50 [2, 4]: 10 nM

SMILES: Cn1c(Nc2c(Cl)ccc(CNC(=O)C(C)(C)C)c2Cl)nc2cc(C(=O)N[C@H]3CC[C@H](C(F)(F)F)CC3)c(N3CC4COCC4C3)cc21 (some centres unmarked) [Example 102]
IC50 [1, 3]: 2 nM | IC50 [2, 4]: 1.5 nM

SMILES: CN(c1cc2c(cc1C(=O)N[C@H]1CC[C@H](C(F)(F)F)CC1)nc(Nc1c(Cl)ccc(CNC(=O)C(C)(C)C)c1Cl)n2C)C1CCS(=O)(=O)C1 (stereo partly drawn) [Example 119, N-(trans-4-Trifluoromethyl-cyclohexyl)-2-{2,6-dichloro-3-[(2,2-dimethyl-propionylamino)-methyl]-phenylamino}-6-[N-methyl-N-(1,1-dioxo-tetrahydro-thiophen-3-yl)-amino]-1-methyl-1H-benzimidazole-5-carboxylic acid amide]
IC50 [1, 3]: 2 nM | IC50 [2, 4]: 1 nM

SMILES: Cn1c(Nc2c(Cl)ccc(CNC(=O)C(C)(C)C)c2Cl)nc2cc(C(=O)N[C@H]3CC[C@H](C(F)(F)F)CC3)c(NCCCO)cc21 [Example 85]
IC50 [1, 3]: 15 nM | IC50 [2, 4]: 86 nM

SMILES: Cn1c(Nc2c(Cl)ccc(CNC(=O)C(C)(C)C)c2Cl)nc2cc(C(=O)N[C@H]3CC[C@H](C(F)(F)F)CC3)c(N3CCCC(C(F)(F)F)C3)cc21 (some centres unmarked) [Example 89]
IC50 [1, 3]: 2 nM | IC50 [2, 4]: 1 nM

SMILES: Cn1c(Nc2c(Cl)ccc(CNC(=O)C(C)(C)C(F)(F)F)c2Cl)nc2cc(C(=O)N[C@H]3CC[C@@H](C(F)(F)F)CC3)c(N3CCC(C(F)(F)F)CC3)cc21 [Example 254]
IC50 [1, 3]: 3.1 nM | IC50 [2, 4]: 1 nM

Now from value to molecule:

IC50 [1, 3]: 2 nM | IC50 [2, 4]: 3 nM
SMILES: Cn1c(Nc2c(Cl)ccc(CNC(=O)c3ccc(N)cc3Cl)c2Cl)nc2cc(C(=O)NCCC(F)(F)F)c(N3CCC(C(F)(F)F)CC3)cc21 [Example 177]

IC50 [1, 3]: 3.3 nM | IC50 [2, 4]: 2 nM
SMILES: Cn1c(Nc2c(Cl)ccc(CNC(=O)C(C)(C)C(F)(F)F)c2Cl)nc2cc(C(=O)Nc3ccc(F)c(Cl)c3)c(N3CC[C@@H](F)C3)cc21 [Example 236]

IC50 ([1]; Table C comparison of selected benzimidazoles, read-out: Enzym IC50): 5 nM | IC50 [1, 3]: 5 nM | IC50 [2, 4]: 7 nM | IC50 ([2]; Table C comparison of selected benzimidazoles, read-out: Cell IC50): 7 nM
SMILES: Cn1c(Nc2c(Cl)ccc(CNC(=O)C(C)(C)C)c2Cl)nc2cc(C(=O)NCC3CC3)c(N3CCC(F)(F)C3)cc21 [Example 45]

IC50 [1, 3]: 2 nM | IC50 [2, 4]: 1 nM
SMILES: Cn1c(Nc2c(Cl)ccc(CNC(=O)C(C)(C)C)c2Cl)nc2cc(C(=O)Nc3ccc(F)c(Cl)c3)c(N3CCC(F)CC3)cc21 [Example 1, N-(4-Fluoro-3-chloro-phenyl)-2-{2,6-dichloro-3-[(2,2-dimethyl-propionylamino)-methyl]-phenylamino}-6-(4-fluoro-piperidinyl)-1-methyl-1H-benzimidazole-5-carboxylic acid amide]

IC50 [1, 3]: 4 nM | IC50 [2, 4]: 3 nM
SMILES: Cn1c(Nc2c(Cl)ccc(CNC(=O)C(C)(C)C)c2Cl)nc2cc(C(=O)Nc3cc(C(C)(C)CO)no3)c(N3CCC(C(F)(F)F)CC3)cc21 [Example 160]

IC50 [1, 3]: 3.9 nM | IC50 [2, 4]: 4.4 nM
SMILES: Cn1c(Nc2c(Cl)ccc(CNC(=O)C(C)(C)F)c2Cl)nc2cc(C(=O)Nc3ccc(F)c(Cl)c3)c(N3CC[C@@H](F)C3)cc21 [Example 235]

IC50 [1, 3]: 3 nM | IC50 [2, 4]: 3 nM
SMILES: Cn1c(Nc2c(Cl)ccc(CNC(=O)[C@@](C)(O)C(F)(F)F)c2Cl)nc2cc(C(=O)Nc3ccc(F)c(Cl)c3)c(N3CC[C@@H](F)C3)cc21 [Example 247]

IC50 [1, 3]: 4 nM | IC50 [2, 4]: 6 nM
SMILES: Cn1c(Nc2c(Cl)ccc(CNC(=O)C(C)(C)C)c2Cl)nc2cc(C(=O)NC(c3ccccn3)C(F)(F)F)c(N3CCC(F)(F)C3)cc21 (centres unmarked) [Example 38]

IC50 [1, 3]: 3 nM | IC50 [2, 4]: 1 nM
SMILES: Cn1c(Nc2c(Cl)ccc(CNC(=O)C(C)(C)C)c2Cl)nc2cc(C(=O)N[C@H]3CC[C@H](C(F)(F)F)CC3)c(N3CC[C@@H](F)C3)cc21 [Example 19]

IC50 [1, 3]: 3 nM | IC50 [2, 4]: 4 nM
SMILES: Cn1c(Nc2c(Cl)ccc(CNC(=O)C(C)(C)C)c2Cl)nc2cc(C(=O)Nc3cc(C(C)(C)C)on3)c(N3CCC(C(F)(F)F)CC3)cc21 [Example 159]

IC50 [1, 3]: 2 nM | IC50 [2, 4]: 1 nM
SMILES: Cn1c(Nc2c(Cl)ccc(CNC(=O)C(C)(C)C)c2Cl)nc2cc(C(=O)Nc3cccc(C(F)(F)F)n3)c(N3CCC(F)(F)C3)cc21 [Example 47]

IC50 [1, 3]: 3 nM | IC50 [2, 4]: 5 nM
SMILES: Cn1c(Nc2c(Cl)ccc(CNC(=O)C(C)(C)C)c2Cl)nc2cc(C(=O)NCCC(F)(F)F)c(N3CC4CC4C3)cc21 (centres unmarked) [Example 135]

IC50 [1, 3]: 2 nM | IC50 [2, 4]: < 1 nM
SMILES: Cn1c(Nc2c(Cl)ccc(CNC(=O)C(C)(C)C)c2Cl)nc2cc(C(=O)Nc3cccc(OC(F)(F)F)c3)c(N3CCC(F)(F)C3)cc21 [Example 40]

IC50 [1, 3]: 2 nM | IC50 [2, 4]: 1 nM
SMILES: Cn1c(Nc2c(Cl)ccc(CNC(=O)C(C)(C)C(F)(F)F)c2Cl)nc2cc(C(=O)N[C@H]3CC[C@H](C(F)(F)F)CC3)c(N3CC[C@@H](F)C3)cc21 [Example 128]

IC50 [1, 3]: 1 nM | IC50 [2, 4]: < 1 nM
SMILES: Cn1c(Nc2c(Cl)ccc(CNC(=O)C(C)(C)C)c2Cl)nc2cc(C(=O)NC3CC(F)(F)C3)c(N3CCC(C(F)(F)F)CC3)cc21 [Example 14]

IC50 [1, 3]: 3 nM | IC50 [2, 4]: 1 nM
SMILES: Cn1c(Nc2c(Cl)ccc(CNC(=O)C(C)(C)F)c2Cl)nc2cc(C(=O)N[C@H]3CC[C@H](C(F)(F)F)CC3)c(N3CC[C@@H](F)C3)cc21 [Example 120]

IC50 [1, 3]: 2 nM | IC50 [2, 4]: 3 nM
SMILES: Cn1c(Nc2c(Cl)ccc(CNC(=O)C(C)(C)C)c2F)nc2cc(C(=O)Nc3ccc(OC(F)(F)F)cc3)c(N3CC[C@@H](F)C3)cc21 [Example 138]

IC50 [1, 3]: 2.9 nM | IC50 [2, 4]: 1.5 nM
SMILES: Cn1c(Nc2c(Cl)ccc(CNC(=O)C(C)(C)C)c2Cl)nc2cc(C(=O)Nc3ccc(F)c(Cl)c3)c(N3CC[C@@H](F)C3)cc21 [Example 246]

IC50 [1, 3]: 2 nM | IC50 [2, 4]: 2 nM
SMILES: Cn1c(Nc2c(Cl)ccc(CNC(=O)C(C)(C)C)c2Cl)nc2cc(C(=O)Nc3ccc(F)c(Cl)c3)c(N3CCC(F)(F)C3)cc21 [Example 42]

IC50 [1, 3]: 2 nM | IC50 [2, 4]: 7 nM
SMILES: Cn1c(Nc2c(Cl)ccc(CNC(=O)C(C)(C)C)c2Cl)nc2cc(C(=O)N[C@H](c3ccccc3)C(F)(F)F)c(N3CCC(F)(F)C3)cc21 [Example 41]

IC50 [1, 3]: 4 nM | IC50 [2, 4]: 4 nM
SMILES: Cc1nc(C(F)(F)F)c(CNC(=O)c2cc3nc(Nc4c(Cl)ccc(CNC(=O)C(C)(C)C)c4Cl)n(C)c3cc2N2CCC(C(F)(F)F)CC2)s1 [Example 158]

IC50 [1, 3]: 2 nM | IC50 [2, 4]: 5 nM
SMILES: Cn1c(Nc2c(Cl)ccc(CNC(=O)C(C)(C)C)c2Cl)nc2cc(C(=O)Nc3cccc(C(F)(F)F)n3)c(N3CCC(C(F)(F)F)CC3)cc21 [Example 55]
